# Experiments:
# Assay in all cases: biochemical
# Parameters in all cases: in vitro kinase selectivity panel, protein and lipid kinases, single concentration, ATP at Km
# Settings in all cases: ATP at Km
# HIPK3(h) = HIPK3(h) (Homo sapiens, UniProt Q9H422)
# Method: (§1) CRT0066101 was described previously ([48]) and was purchased for this study from Tocris, with a purity of 99.9%. CRT0066101 (XX-209) and compound XX-050 were synthesized as previously described ([68]). CRT0066051 (Y-095) was also synthesized as previously described ([69]). […] CRT0066101 can also be obtained in larger quantities from Ximbio. Inhibitors were tested in in vitro PKD kinase assays and cellular assays on PANC1 cells as previously described ([48]). The selectivity of the three PKD inhibitors was determined against a panel of protein and lipid kinases by Eurofins and the MRC PPU International Centre for Kinase Profiling (http://www.kinase-screen.mrc.ac.uk), respectively. Each inhibitor was tested at a single concentration of 1 μM and at an ATP concentration equivalent to the Km for each kinase. Having shown that HRV infection appears to activate PKD, we went on to explore the influence of chemical inhibitors of PKD on HRV replication. The compound CRT0066101 is a specific and potent PKD inhibitor that has been used in studies exploring its potential as an anticancer target ([48], [51]). This inhibitor has a 50% inhibitory concentration (IC50) of 1 nM against purified PKD in biochemical assays and a 50% effective concentration (EC50) of 1 μM in a cell-based assay (Table 1). We pretreated HeLa cells with increasing concentrations of the drug for 1 h followed by infection with HRV16. Viral replication was subsequently measured at 6 hpi by quantitative real-time PCR (qRT-PCR) (Fig. 2A) and by Western blotting using an antibody against the viral nonstructural protein 2C (Fig. 2B). […] Furthermore, we tested two novel and structurally different PKD inhibitors (CRT0066051 and XX-050) (Table 1) and confirmed that they too inhibited HRV 2C expression although with different potencies (Fig. 2D). Kinase selectivity profiling of all three PKD inhibitors was performed against a panel of protein and lipid kinases at a drug concentration of 1 μM and at an ATP concentration equivalent to the Km of each kinase (see Table S1 in the supplemental material). […] Since PKD is known to be involved in regulating the architecture of the Golgi apparatus, we confirmed the pharmacodynamic effect of these inhibitors by demon
# FGFR4(h) = FGFR4(h) (Homo sapiens, UniProt P22455)
# Sequence of FGFR4(h) (P22455 whole entry): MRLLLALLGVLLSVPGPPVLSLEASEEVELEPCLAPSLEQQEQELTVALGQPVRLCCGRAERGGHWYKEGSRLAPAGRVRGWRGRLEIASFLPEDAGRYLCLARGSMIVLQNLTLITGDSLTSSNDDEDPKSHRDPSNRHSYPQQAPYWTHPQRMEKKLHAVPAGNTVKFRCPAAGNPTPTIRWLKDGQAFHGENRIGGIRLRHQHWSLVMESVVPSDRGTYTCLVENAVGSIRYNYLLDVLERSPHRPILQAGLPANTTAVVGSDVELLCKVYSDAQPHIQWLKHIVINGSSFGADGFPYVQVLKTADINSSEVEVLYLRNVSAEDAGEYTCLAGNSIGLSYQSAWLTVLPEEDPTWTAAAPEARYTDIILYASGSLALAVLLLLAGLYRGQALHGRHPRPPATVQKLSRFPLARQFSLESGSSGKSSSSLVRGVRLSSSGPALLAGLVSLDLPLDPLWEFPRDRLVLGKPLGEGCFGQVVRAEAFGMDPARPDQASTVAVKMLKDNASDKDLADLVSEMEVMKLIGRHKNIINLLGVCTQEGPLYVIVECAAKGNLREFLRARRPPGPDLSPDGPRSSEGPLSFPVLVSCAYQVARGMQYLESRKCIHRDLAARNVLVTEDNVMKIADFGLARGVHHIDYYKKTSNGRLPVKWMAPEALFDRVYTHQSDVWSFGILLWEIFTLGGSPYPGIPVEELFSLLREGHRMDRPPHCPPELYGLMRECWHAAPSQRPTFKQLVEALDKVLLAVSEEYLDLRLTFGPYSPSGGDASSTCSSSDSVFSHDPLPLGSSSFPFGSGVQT
# Method: as §1
# ZAP-70(h) = molecular target: T1, ZAP-70(h) (Homo sapiens, UniProt P43403)
# T1 construct: gene ZAP70
# Method: as §1
# EGFR(L861Q)(h) = EGFR(L861Q)(h) (Homo sapiens, UniProt P00533, L861Q)
# Method: as §1
# PKCζ(h) = molecular target: T2, PKCζ(h) (Homo sapiens, UniProt Q05513)
# T2 construct: gene PRKCZ
# Method: as §1
# SPHK1 = SPHK1 (Homo sapiens, UniProt Q9NYA1)
# Method: as §1
# PIK3CA / p85 (h) = molecular target: T3, PIK3CA / p85 (h) (Homo sapiens, UniProt P42336)
# T3 construct: p110alpha/p85
# Method: as §1
# Mer(h) = molecular target: T4, Mer(h) (Homo sapiens, UniProt Q12866)
# T4 construct: gene MERTK
# Method: as §1
# PKD2(h) = molecular target: T5, PKD2(h) (Homo sapiens, UniProt Q9BZL6)
# T5 construct: gene PRKD2
# T5 sequence (Q9BZL6 whole entry): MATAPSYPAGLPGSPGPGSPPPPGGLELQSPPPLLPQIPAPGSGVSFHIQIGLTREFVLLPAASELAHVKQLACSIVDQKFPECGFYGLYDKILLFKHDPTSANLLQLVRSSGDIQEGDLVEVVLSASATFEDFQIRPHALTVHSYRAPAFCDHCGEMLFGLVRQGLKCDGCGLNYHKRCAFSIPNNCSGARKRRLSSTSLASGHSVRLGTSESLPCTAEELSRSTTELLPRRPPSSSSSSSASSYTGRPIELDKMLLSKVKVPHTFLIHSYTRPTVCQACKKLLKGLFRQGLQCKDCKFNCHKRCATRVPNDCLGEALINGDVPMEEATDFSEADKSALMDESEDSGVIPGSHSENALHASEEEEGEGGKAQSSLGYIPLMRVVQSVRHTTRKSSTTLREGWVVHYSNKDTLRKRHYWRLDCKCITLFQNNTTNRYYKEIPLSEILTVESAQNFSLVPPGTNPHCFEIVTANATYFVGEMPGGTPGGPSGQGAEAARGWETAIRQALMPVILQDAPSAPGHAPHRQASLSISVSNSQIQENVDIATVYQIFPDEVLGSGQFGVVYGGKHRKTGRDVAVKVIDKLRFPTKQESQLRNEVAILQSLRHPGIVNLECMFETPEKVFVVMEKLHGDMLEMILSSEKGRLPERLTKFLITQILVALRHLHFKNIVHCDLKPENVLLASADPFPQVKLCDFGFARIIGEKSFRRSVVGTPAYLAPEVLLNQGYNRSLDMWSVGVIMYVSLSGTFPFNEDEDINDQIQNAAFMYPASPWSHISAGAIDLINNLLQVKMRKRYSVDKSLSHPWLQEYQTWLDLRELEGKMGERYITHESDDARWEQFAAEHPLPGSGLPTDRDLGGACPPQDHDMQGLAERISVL
# Method: as §1
# EphA2(h) = EphA2(h) (Homo sapiens, UniProt P29317)
# Method: as §1
# EGFR(h) = EGFR(h) (Homo sapiens, UniProt P00533)
# Method: as §1
# MST3(h) = molecular target: T6, MST3(h) (Homo sapiens, UniProt Q9Y6E0)
# T6 construct: gene STK24
# Method: as §1
# Ros(h) = molecular target: T7, Ros(h) (Homo sapiens, UniProt P08922)
# T7 construct: gene ROS1
# Method: as §1
# HIPK1(h) = HIPK1(h) (Homo sapiens, UniProt Q86Z02)
# Method: as §1
# CHK2(h) = molecular target: T8, CHK2(h) (Homo sapiens, UniProt O96017)
# T8 construct: gene CHEK2
# Method: as §1
# Flt3(h) = Flt3(h) (Homo sapiens, UniProt P36888)
# Method: as §1
# PIK3CA = PIK3CA (Homo sapiens, UniProt P42336)
# Sequence of PIK3CA (P42336 whole entry): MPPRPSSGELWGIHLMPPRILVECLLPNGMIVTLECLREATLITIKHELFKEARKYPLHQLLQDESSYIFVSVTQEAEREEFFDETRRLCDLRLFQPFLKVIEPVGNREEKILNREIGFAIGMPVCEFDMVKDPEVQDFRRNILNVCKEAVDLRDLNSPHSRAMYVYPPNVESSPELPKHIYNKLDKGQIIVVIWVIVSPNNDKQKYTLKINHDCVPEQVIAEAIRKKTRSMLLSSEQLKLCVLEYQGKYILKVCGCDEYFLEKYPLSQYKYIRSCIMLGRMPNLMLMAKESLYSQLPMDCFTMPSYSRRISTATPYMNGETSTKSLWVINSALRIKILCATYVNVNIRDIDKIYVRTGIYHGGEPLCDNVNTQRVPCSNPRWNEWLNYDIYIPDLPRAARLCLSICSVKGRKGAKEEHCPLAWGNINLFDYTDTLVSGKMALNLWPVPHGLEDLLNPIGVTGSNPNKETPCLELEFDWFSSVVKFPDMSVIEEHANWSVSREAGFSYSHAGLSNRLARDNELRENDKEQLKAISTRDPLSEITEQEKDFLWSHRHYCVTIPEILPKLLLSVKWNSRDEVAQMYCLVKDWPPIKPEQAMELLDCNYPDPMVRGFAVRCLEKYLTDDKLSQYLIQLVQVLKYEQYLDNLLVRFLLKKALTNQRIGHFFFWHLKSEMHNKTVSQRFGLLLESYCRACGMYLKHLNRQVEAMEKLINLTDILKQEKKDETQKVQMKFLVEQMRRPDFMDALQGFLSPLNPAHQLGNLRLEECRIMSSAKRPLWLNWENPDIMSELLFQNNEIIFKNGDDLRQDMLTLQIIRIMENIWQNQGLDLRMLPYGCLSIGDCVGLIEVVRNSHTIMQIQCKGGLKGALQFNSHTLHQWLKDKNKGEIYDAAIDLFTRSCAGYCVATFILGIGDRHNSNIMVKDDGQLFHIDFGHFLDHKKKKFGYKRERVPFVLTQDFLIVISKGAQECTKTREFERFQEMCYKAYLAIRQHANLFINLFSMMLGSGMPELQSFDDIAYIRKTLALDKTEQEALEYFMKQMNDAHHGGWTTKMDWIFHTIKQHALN
# Method: as §1
# Ret(h) = Ret(h) (Homo sapiens, UniProt P07949)
# Sequence of Ret(h) (P07949 whole entry): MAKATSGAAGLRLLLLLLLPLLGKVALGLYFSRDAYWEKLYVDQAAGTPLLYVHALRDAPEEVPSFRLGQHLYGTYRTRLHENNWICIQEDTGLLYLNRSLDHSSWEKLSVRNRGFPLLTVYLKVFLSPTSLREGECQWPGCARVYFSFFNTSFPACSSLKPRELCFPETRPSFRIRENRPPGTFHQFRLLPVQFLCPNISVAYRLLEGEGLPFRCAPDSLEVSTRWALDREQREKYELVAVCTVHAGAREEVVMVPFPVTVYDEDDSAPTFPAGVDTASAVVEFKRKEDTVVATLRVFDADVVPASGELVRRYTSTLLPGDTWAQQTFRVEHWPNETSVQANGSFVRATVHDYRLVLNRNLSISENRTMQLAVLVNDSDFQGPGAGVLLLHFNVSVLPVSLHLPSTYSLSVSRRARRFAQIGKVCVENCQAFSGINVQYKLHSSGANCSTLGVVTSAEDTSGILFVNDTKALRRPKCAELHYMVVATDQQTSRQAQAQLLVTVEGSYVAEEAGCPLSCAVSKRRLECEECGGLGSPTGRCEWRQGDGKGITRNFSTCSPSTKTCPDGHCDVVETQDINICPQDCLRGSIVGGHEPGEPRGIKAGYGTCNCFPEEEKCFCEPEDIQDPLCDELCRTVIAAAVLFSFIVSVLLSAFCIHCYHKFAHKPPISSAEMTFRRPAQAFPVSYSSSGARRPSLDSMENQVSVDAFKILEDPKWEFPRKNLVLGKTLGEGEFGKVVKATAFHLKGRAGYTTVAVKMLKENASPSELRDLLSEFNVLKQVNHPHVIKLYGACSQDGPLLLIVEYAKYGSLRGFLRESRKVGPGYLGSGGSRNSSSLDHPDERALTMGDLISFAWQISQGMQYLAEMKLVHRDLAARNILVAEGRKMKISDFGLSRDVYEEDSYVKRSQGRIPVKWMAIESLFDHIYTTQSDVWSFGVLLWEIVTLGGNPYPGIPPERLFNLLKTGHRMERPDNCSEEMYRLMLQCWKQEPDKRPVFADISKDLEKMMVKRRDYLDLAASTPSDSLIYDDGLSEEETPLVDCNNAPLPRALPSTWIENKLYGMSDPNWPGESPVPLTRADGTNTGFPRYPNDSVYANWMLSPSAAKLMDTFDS
# Method: as §1
# Sequence of HIPK3(h) (Q9H422 whole entry): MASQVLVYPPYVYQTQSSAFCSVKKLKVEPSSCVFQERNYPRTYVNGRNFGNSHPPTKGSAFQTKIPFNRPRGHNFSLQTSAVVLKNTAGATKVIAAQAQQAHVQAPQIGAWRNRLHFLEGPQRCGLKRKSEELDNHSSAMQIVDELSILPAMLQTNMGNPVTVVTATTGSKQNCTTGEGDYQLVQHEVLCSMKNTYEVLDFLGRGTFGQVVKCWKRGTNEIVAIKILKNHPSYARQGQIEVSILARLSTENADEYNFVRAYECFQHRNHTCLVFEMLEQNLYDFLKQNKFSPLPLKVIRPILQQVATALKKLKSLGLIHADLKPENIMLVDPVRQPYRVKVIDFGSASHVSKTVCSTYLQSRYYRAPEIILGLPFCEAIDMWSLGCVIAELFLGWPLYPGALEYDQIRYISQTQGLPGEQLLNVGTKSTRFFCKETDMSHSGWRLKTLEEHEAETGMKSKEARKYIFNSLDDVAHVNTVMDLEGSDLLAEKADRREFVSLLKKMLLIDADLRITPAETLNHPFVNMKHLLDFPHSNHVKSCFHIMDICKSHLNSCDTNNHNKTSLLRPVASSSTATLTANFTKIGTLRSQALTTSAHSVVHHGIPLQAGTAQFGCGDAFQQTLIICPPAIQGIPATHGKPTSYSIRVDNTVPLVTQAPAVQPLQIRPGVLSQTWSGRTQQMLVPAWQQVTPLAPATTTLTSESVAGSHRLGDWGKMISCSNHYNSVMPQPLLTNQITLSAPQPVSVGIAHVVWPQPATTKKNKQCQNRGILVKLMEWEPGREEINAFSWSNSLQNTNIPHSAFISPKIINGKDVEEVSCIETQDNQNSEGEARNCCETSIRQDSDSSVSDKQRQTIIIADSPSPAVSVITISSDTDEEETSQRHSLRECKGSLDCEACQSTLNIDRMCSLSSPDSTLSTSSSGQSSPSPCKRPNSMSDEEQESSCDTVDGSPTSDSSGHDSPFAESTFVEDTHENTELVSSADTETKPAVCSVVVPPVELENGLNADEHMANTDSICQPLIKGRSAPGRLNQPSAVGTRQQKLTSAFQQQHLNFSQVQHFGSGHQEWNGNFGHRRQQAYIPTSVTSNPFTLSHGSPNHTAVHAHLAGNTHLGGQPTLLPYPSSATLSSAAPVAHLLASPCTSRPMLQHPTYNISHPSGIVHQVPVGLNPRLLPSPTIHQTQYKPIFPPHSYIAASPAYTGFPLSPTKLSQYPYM
smiles,measurement,setting,value
CC[C@@H](N)CNc1ccnc(-c2cc(-c3cnn(C)c3)ccc2O)n1 [CRT0066101],inhibition at 1 µM,HIPK3(h),14%
same,inhibition at 1 µM,FGFR4(h),-2%
same,inhibition at 1 µM,ZAP-70(h),-19%
same,inhibition at 1 µM,EGFR(L861Q)(h),10%
same,inhibition at 1 µM,PKCζ(h),-8%
same,inhibition at 1 µM,SPHK1,19%
same,inhibition at 1 µM,PIK3CA / p85 (h),-1%
same,inhibition at 1 µM,Mer(h),66%
same,inhibition at 1 µM,PKD2(h),96%
same,inhibition at 1 µM,EphA2(h),2%
same,inhibition at 1 µM,EGFR(h),-6%
same,inhibition at 1 µM,MST3(h),-6%
same,inhibition at 1 µM,Ros(h),-13%
same,inhibition at 1 µM,HIPK1(h),23%
same,inhibition at 1 µM,CHK2(h),26%
same,inhibition at 1 µM,Flt3(h),4%
same,inhibition at 1 µM,PIK3CA,1%
same,inhibition at 1 µM,Ret(h),0%

# — article PMC5391474, “Investigation of the Role of Protein Kinase D in Human Rhinovirus Replication” (Journal of Virology, 2017)
